{
  "source": "patent EP0937734B1",
  "about": "“11-Acetyl-12,13-dioxabicyclo ¬8.2.1 tridecenone derivatives, process for making them and pharmaceutical compositions containing them” (Abbott Products GmbH, priority 1998, dated 1999)",
  "key": {"[1]": {"test": "In vivo determination of the influence on the resting tone of the lower oesophageal sphincter (pull-through manometry)", "set-up": "species or system Beagle-Hunden", "excerpt": "3. In-vivo-Bestimmung des Einflusses der Substanzen auf den Ruhe-Tonus des unteren Oesophagus Sphincter.\nDiese Bestimmung wird an männlichen, wachen, nüchternen Beagle-Hunden vorgenommen, denen vor Versuchsbeginn je eine Oesophagus-Fistel und eine Duodenal-Kanüle gelegt worden sind. Der Druck des unteren Oesophagus Sphincter wird mittels eines perfundierten Kathetersystems mit seitlicher Öffnung, das mit einem Druckaufnehmer und einem Recorder verbunden ist, gemessen. Der Katheter wird über die Oesophagus-Fistel in den Magen geführt und dann langsam manuell zurückgezogen (= Durchzugsmanometrie). Beim Passieren des Katheterteils mit der seitlichen Öffnung durch die Hochdruckzone des unteren Oesophagus Sphincter wird ein Peak registriert. Aus diesem Peak wird der Druck in mm Hg bestimmt.\nAuf diese Weise wird zunächst als Kontrollwert der basale Druck des Oesophagus Sphincter bestimmt. Anschließend wird die Testsubstanz oral appliziert und nach 15 min. wird der Druck am unteren Oesophagus Sphincter in 2-Minuten-Intervallen über einen Zeitraum von 60 min. gemessen. Die Steigerung des Druckes nach Testsubstanzgabe im Vergleich zu dem vorbestimmten basalen Druck wird berechnet.\nIn diesem Test nahm der basale Tonus des Oesophagus Sphincter durch eine Dosis von 2,15 µMol/kg der Substanz des Beispiels 1 um 143 % zu. Dieser Effekt hielt während der gesamten Testdauer von 60 min. an."}, "[2]": {"test": "In vivo determination of the influence on gastric tone (barostat, gastric volume at constant pressure after lipid-induced relaxation)", "set-up": "species or system Beagle-Hunden", "excerpt": "2. In-vivo-Bestimmung des Einflusses der Substanzen auf den Magentonus\nDer Magentonus spielt eine wichtige Rolle bei der Magenentleerung. Ein erhöhter Magentonus trägt zu einer beschleunigten Magenentleerung bei.\nDer Einfluß von Substanzen auf den Magentonus wird an Beagle-Hunden mit Hilfe eines Barostaten bestimmt, welcher mit einem Kunststoffbeutel im Magen des Hundes verbunden ist und die Messung von Volumen oder Druck im Magen des Hundes ermöglicht. Mit dem Barostaten wird das Magenvolumen bei konstantem Druck im Magen oder der Magendruck bei konstantem Volumen im Magen bestimmt. Bei Erhöhung des Magentonus stellt man bei einem bestimmten Druck ein verringertes Magenvolumen fest und einen erhöhten Druck bei einem bestimmten Volumen. In dem zur Untersuchung der durch die Substanzen bewirkten Erhöhung des Magentonus verwendeten Testmodell wird die durch die Substanzen verursachte Magenvolumenänderung bei konstantem Druck gemessen. Der Magen der Versuchstiere wird durch Lipideinnahme relaxiert, d. h. der Magentonus sinkt, wodurch das Magenvolumen entsprechend zunimmt. Als Maß für die den Magentonus erhöhende Wirkung der Substanzen wird die nach Substanzeinnahme durch Wiederanstieg des Magentonus eintretende Reduktion des durch Lipidgabe vergrößerten Magenvolumens in % gemessen. […]"}, "[3]": {"target": "T1, Motilin-Rezeptoren (Oryctolagus cuniculus, UniProt G1T803)", "T1 construct": "Die so erhaltene Gewebefraktion, welche als \"rohe Membranzubereitung\" bezeichnet wird, wird für den Test eingesetzt; from tissue; host or cells: rabbit antrum freed of mucosa, crude membrane fraction", "T1 sequence (G1T803 1-400)": "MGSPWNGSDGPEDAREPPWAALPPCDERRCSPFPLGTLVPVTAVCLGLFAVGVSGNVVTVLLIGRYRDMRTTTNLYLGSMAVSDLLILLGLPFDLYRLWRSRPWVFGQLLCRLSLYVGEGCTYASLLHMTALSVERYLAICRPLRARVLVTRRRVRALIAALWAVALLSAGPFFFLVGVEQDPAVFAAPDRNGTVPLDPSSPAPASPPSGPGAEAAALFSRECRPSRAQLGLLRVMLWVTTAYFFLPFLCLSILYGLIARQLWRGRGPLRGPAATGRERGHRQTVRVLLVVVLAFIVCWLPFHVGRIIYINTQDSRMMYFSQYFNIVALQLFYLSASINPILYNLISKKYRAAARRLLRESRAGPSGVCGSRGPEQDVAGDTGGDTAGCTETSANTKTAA", "test": "Binding of test substances to motilin receptors (displacement of 125I-labelled motilin, crude membrane preparation from rabbit antrum)", "set-up": "species or system Kaninchen", "conditions": "displacement of iodinated motilin (50 pM), rabbit antrum membrane fraction, 60 min at 30 °C; calculated from IC50", "excerpt": "1. Bestimmung des Bindungsvermögens der Testsubstanzen an Motilin-Rezeptoren.\nDie Affinität der Verbindungen der Formel I an Motilin-Rezeptoren wird in vitro an einer Fraktion eines Gewebehomogenats aus dem Kaninchenantrum gemessen. Bestimmt wird die Verdrängung von radioaktiv markiertem jodiertem Motilin aus der Motilin-Rezeptor-Bindung durch die Testsubstanzen.\nDie Rezeptor-Bindungsstudien werden nach einer Modifikation der Methode von Borman et al. (Regulatory Peptides 15 (1986), 143-153) durchgeführt. Zur Herstellung des ^125Jodmarkierten Motilins wird Motilin auf an sich bekannte Weise, z. B. analog der von Bloom et al. (Scand. J. Gastroenterol. 11 (1976) 47 - 52) beschriebenen Methode enzymatisch unter Verwendung von Lactoperoxidase jodiert.\nZur Gewinnung der in dem Test verwendeten Gewebehomogenatfraktion aus dem Kaninchenantrum wird das von Schleimhäuten befreite Antrum zerkleinert und im 10-fachen Volumen einer kalten Homogenisierungspufferlösung (50 mM Tris-HCl-Puffer, 250 mM Sucrose, 25 mM KCl, 10 mM MgCl2, pH 7,4) mit Zusatz von Inhibitoren (1 mM Jodacetamid, 1 µM Pepstatin, 0,1 mM Methylsulfonylfluorid, 0,1 g/l Trypsininhibitor, 0,25 g/l Bacitracin) mit einem Homogenisator 15 sec. bei 1500 Umdrehungen pro Minute homogenisiert. […]"}},
  "data": [
    {"compound": "CO[C@]1(C)C[C@H](O[C@H]2[C@H](C)[C@@H](O[C@@H]3O[C@H](C)C[C@H](N(C)C(C)C)[C@H]3O)[C@@]3(C)CC(C)=C(O3)[C@H](C)[C@H](C(C)=O)OC(=O)[C@@H]2C)O[C@@H](C)[C@@H]1O", "note": "[Beispiel 1, (2R,3S,4S,5R,6R,10R,11R]-3-[(2,6-Didesoxy-3-C-methyl-3-O-methyl-α-L-ribohexopyranosyl)-oxy]-5-[(3,4,6-tridesoxy-3-(N-methyl-N-isopropylamino)-β-D-xylohexopyranosyl)-oxy]-2,4,6,8,10-pentamethyl-11-acetyl-12,13-dioxabicyclo[8.2.1]-tridec-8-en-1-on]", "values": [
      {"measurement": "Duration of the effect on the tone of the Oesophagus Sphincter", "setting": "[1]; 2,15 µMol/kg oral, effect lasted for the whole test duration", "result": "≥ 60", "unit": "min"},
      {"measurement": "Zunahme des basalen Tonus des Oesophagus Sphincter", "setting": "[1]; conscious fasted male Beagle dogs, 2,15 µMol/kg oral, versus basal pressure", "result": 143, "unit": "%"},
      {"measurement": "Reduktion des nach Lipidgabe vergrößerten Magenvolumens", "setting": "[2]; Beagle dogs, 2,15 µmol/kg i.d., constant pressure", "result": "59,5%"},
      {"measurement": "Reduktion des Magenvolumens (Lipid-induzierte Relaxierung des Magenvolumens)", "setting": "[2]; Beagle dogs, 2,15 µmol/kg oral", "result": "praktisch völlig verhindert"},
      {"measurement": "IC50", "setting": "[3]", "result": 9.77, "unit": "nM"}
    ]},
    {"compound": "CO[C@]1(C)C[C@H](O[C@H]2[C@H](C)[C@@H](O[C@@H]3O[C@H](C)C[C@H](N(C)C(C)C)[C@H]3OC(C)=O)[C@@]3(C)CC(C)=C(O3)[C@H](C)[C@H](C(C)=O)OC(=O)[C@@H]2C)O[C@@H](C)[C@@H]1O", "note": "[Beispiel 2, (2R,3S,4S,5R,6R,10R,11R)-3-[(2,6-Didesoxy-3-C-methyl-3-O-methyl-α-L-ribohexopyranosyl)-oxy]-5-[(3,4,6-tridesoxy-2-O-acetyl-3-(N-methyl-N-isopropylamino)-β-D-xylohexopyranosyl)-oxy]-2,4,6,8,10-pentamethyl-11-acetyl-12,13-dioxabicyclo-[8.2.1]tridec-8-en-1-on]", "values": [
      {"measurement": "IC50", "setting": "[3]", "result": 17.8, "unit": "nM"}
    ]}
  ]
}
